According to BindingDB's records for patent US20230312550 (Astrazeneca, 2023):

Biological target: T1, Prolyl endopeptidase FAP (Homo sapiens, UniProt Q12884)
T1 sequence (Q12884 whole entry): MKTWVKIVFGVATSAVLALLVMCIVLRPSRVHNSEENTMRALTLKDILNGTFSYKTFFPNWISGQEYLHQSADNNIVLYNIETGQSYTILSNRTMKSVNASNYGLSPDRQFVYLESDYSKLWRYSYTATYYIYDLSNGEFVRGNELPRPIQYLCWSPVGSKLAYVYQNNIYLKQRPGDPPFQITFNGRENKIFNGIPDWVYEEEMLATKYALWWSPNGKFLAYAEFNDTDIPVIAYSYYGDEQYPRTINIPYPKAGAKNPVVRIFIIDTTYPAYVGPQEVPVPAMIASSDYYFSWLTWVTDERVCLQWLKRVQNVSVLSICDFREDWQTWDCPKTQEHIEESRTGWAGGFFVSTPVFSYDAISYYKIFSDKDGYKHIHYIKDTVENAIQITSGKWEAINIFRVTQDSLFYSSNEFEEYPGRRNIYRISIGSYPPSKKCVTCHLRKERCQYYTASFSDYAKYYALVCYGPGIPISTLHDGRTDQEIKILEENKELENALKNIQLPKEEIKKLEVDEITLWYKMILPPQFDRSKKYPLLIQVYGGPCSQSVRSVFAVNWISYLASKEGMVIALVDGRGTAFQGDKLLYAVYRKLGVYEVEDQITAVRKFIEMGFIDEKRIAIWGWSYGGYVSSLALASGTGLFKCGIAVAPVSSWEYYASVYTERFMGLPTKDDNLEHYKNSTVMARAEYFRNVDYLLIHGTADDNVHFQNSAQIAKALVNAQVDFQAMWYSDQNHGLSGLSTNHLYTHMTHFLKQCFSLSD
Assay: hFAP Binding Assay
Conditions: for kon: read-out: kon (M-1-s-1)

Compound | koff [s⁻¹] | kon [M⁻¹ s⁻¹]
N#C[C@@H]1CSCN1C(=O)CNC(=O)c1c(F)cnc2ccc(N3CCOCC3)cc12 [US20230312550, Example 2] | 0.0038 | 410000
N#C[C@@H]1CSCN1C(=O)CNC(=O)c1ccnc2ccc(N3CCOC(F)(F)C3)cc12 [US20230312550, Example 4] | 9.4e-05 | 1.2e+06
N#C[C@@H]1CSCN1C(=O)CNC(=O)c1ccnc2ccc(N3CCOc4ccccc43)cc12 [US20230312550, Example 6] | 18 | 
C[C@@H]1CN(c2ccc3nccc(C(=O)NCC(=O)N4CSC[C@H]4C#N)c3c2)C[C@H](C)[C@@H]1O [US20230312550, Example 7] | 7.5e-05 | 740000
Cc1cc2nccc(C(=O)NCC(=O)N3CSC[C@H]3C#N)c2cc1N1CCOCC1 [US20230312550, Example 10] | 5.6e-05 | 370000
CC1(C)CCN(c2ccc3nccc(C(=O)NCC(=O)N4CSC[C@H]4C#N)c3c2)C1=O [US20230312550, Example 12] | 6.4e-05 | 1.9e+06
CC1(C)CN(c2ccc3nccc(C(=O)NCC(=O)N4CSC[C@H]4C#N)c3c2)C(=O)O1 [US20230312550, Example 13] | 7.6e-05 | 9.2e+06
CC1(C)CCCN(c2ccc3nccc(C(=O)NCC(=O)N4CSC[C@H]4C#N)c3c2)C1=O [US20230312550, Example 15] | 4.6e-05 | 490000
CC1(C)OCCN(c2ccc3nccc(C(=O)NCC(=O)N4CSC[C@H]4C#N)c3c2)C1=O [US20230312550, Example 16] | 4.1e-05 | 740000
CC1(C)COC12CN(c1ccc3nccc(C(=O)NCC(=O)N4CSC[C@H]4C#N)c3c1)C2 [US20230312550, Example 18] | 5.9e-05 | 1.4e+06
CC1(C)CCN1c1ccc2nccc(C(=O)NCC(=O)N3CSC[C@H]3C#N)c2c1 [US20230312550, Example 20] | 0.00012 | 4.2e+06
N#C[C@@H]1CSCN1C(=O)CNC(=O)c1ccnc2ccc(N3CC(F)(F)C3)cc12 [US20230312550, Example 23] | 0.00018 | 2.1e+06
N#C[C@@H]1CSCN1C(=O)CNC(=O)c1ccnc2ccc(N3CC(C(F)(F)F)C3)cc12 [US20230312550, Example 26] | 6.5e-05 | 1.3e+06
COCC1(C)CN(c2ccc3nccc(C(=O)NCC(=O)N4CSC[C@H]4C#N)c3c2)C1 [US20230312550, Example 29] | 6.1e-05 | 1.1e+06
CC1(C)CCN(c2ccc3nccc(C(=O)NCC(=O)N4CSC[C@H]4C#N)c3c2)CC1 [US20230312550, Example 33] | 5.2e-05 | 1.1e+06
CC1(F)CCN(c2ccc3nccc(C(=O)NCC(=O)N4CSC[C@H]4C#N)c3c2)CC1 [US20230312550, Example 34] | 8.2e-05 | 2.2e+06
N#C[C@@H]1CSCN1C(=O)CNC(=O)c1ccnc2ccc(N3CCC(F)(F)CC3)cc12 [US20230312550, Example 35] | 0.0001 | 900000
N#C[C@@H]1CSCN1C(=O)CNC(=O)c1ccnc2ccc(N3CCCC(F)(F)C3)cc12 [US20230312550, Example 36] | 9e-05 | 3e+06
CC1(CF)CCN(c2ccc3nccc(C(=O)NCC(=O)N4CSC[C@H]4C#N)c3c2)CC1 [US20230312550, Example 37] | 3e-05 | 1e+06
CC1(C)CN(c2ccc3nccc(C(=O)NCC(=O)N4CSC[C@H]4C#N)c3c2)CCC1(F)F [US20230312550, Example 38] | 7.8e-05 | 520000
N#C[C@@H]1CSCN1C(=O)CNC(=O)c1ccnc2ccc(N3CCC(C(F)(F)F)CC3)cc12 [US20230312550, Example 39] | 0.00016 | 4.9e+06
COC1(C)CCN(c2ccc3nccc(C(=O)NCC(=O)N4CSC[C@H]4C#N)c3c2)CC1 [US20230312550, Example 42] | 5.4e-05 | 1.8e+06
CC(C)OC1CCN(c2ccc3nccc(C(=O)NCC(=O)N4CSC[C@H]4C#N)c3c2)CC1 [US20230312550, Example 43] | 1.9e-05 | 3.2e+06
N#C[C@@H]1CSCN1C(=O)CNC(=O)c1ccnc2ccc(N3CCCC4(CC4)C3)cc12 [US20230312550, Example 46] | 6.2e-05 | 3e+06

Continued, values first:

koff [s⁻¹] | kon [M⁻¹ s⁻¹] | Compound
6.6e-05 | 1.2e+06 | N#C[C@@H]1CSCN1C(=O)CNC(=O)c1ccnc2ccc(N3C[C@@H]4CCC[C@@H]43)cc12 (mixture of isomers) [US20230312550, Example 156]
9.8e-05 | 3.8e+06 | N#C[C@@H]1CSCN1C(=O)CNC(=O)c1ccnc2ccc(N3C[C@@H]4CC[C@H]3C4)cc12 (mixture of isomers) [US20230312550, Example 210]
0.0001 | 1.8e+06 | C[C@H]1CCN(c2ccc3nccc(C(=O)NCC(=O)N4CSC[C@H]4C#N)c3c2)C1=O (single isomer, unassigned) [US20230312550, Example 201]
0.00014 | 730000 | N#C[C@@H]1CSCN1C(=O)CNC(=O)c1ccnc2ccc(N3CCCCO3)cc12 [US20230312550, Example 1]
0.0004 | 4.1e+06 | N#C[C@@H]1CSCN1C(=O)CNC(=O)c1ccnc2ccc(N3CCSCC3)cc12 [US20230312550, Example 3]
6.4e-05 | 1.3e+06 | N#C[C@@H]1CSCN1C(=O)CNC(=O)c1ccnc2ccc(N3CCCCC3=O)cc12 [US20230312550, Example 14]
0.00012 | 8.3e+06 | N#C[C@@H]1CSCN1C(=O)CNC(=O)c1ccnc2ccc(N3CC4(CCC4)C3)cc12 [US20230312550, Example 17]
6.6e-05 | 430000 | N#C[C@@H]1CSCN1C(=O)CNC(=O)c1ccnc2ccc(N3CCC34CCC4)cc12 [US20230312550, Example 19]
0.0002 | 3e+06 | N#C[C@@H]1CSCN1C(=O)CNC(=O)c1ccnc2ccc(N3CC(F)C3)cc12 [US20230312550, Example 21]
0.00011 | 1.4e+06 | CC1CN(c2ccc3nccc(C(=O)NCC(=O)N4CSC[C@H]4C#N)c3c2)C1 [US20230312550, Example 25]
0.00011 | 1.1e+06 | N#C[C@@H]1CSCN1C(=O)CNC(=O)c1ccnc2ccc(N3CC(C(F)F)C3)cc12 [US20230312550, Example 28]
0.00022 | 5.2e+06 | CO[C@@H]1CN(c2ccc3nccc(C(=O)NCC(=O)N4CSC[C@H]4C#N)c3c2)[C@H]1C [US20230312550, Example 30]
0.00024 | 9.7e+06 | N#C[C@@H]1CSCN1C(=O)CNC(=O)c1ccnc2ccc(N3CC(F)(C4CC4)C3)cc12 [US20230312550, Example 31]
2.9e-05 | 1.3e+06 | N#C[C@@H]1CSCN1C(=O)CNC(=O)c1ccnc2ccc(N3CCCCC3)cc12 [US20230312550, Example 32]
6.4e-05 | 680000 | CO[C@H]1CCCN(c2ccc3nccc(C(=O)NCC(=O)N4CSC[C@H]4C#N)c3c2)C1 [US20230312550, Example 41]
7.2e-05 | 1.7e+06 | C[C@H]1CC(F)(F)CCN1c1ccc2nccc(C(=O)NCC(=O)N3CSC[C@H]3C#N)c2c1 [US20230312550, Example 44]
0.00018 | 5.4e+06 | N#C[C@@H]1CSCN1C(=O)CNC(=O)c1ccnc2ccc(N3CCCC[C@H]3CF)cc12 [US20230312550, Example 45]
